17 compounds from US8088805B2, “Inhibitors of histone deacetylase” (MethylGene Inc., priority 2004, dated 2012) can be followed below.

Assay [1] addresses T1, cloned recombinant human HDAC-1 enzyme (Homo sapiens, UniProt Q13547).
T1 construct: made in house; host or cells: Baculovirus insect cell expression system
The experiment in a line: HDAC-1 enzymatic inhibition, Assay 1 ([3H]-acetylated histone substrate). Type of assay: biochemical. The settings on record: Assay 1: [3H]-labeled acetylated histone substrate, recombinant hHDAC-1. As for the experimental part:
Assay 1. HDAC inhibitors were screened against a cloned recombinant human HDAC-1 enzyme expressed and purified from a Baculovirus insect cell expression system. For deacetylase assays, 20,000 cpm of the [^3H]-metabolically labeled acetylated histone substrate (M. Yoshida et al., J. Biol. Chem. 265(28): 17174-17179 (1990)) was incubated with 30 μg of the cloned recombinant hHDAC-1 for 10 minutes at 37° C. The reaction was stopped by adding acetic acid (0.04 M, final concentration) and HCl (250 mM, final concentration). The mixture was extracted with ethyl acetate and the released [^3H]-acetic acid was quantified by scintillation counting. For inhibition studies, the enzyme was preincubated with compounds at 4° C. for 30 minutes prior to initiation of the enzymatic assay. IC50 values for HDAC enzyme inhibitors were determined by performing dose response curves with individual compounds and determining the concentration of inhibitor producing fifty percent of the maximal inhibition.
(§1) Assay 1 was used to measure HDAC activity of compounds 10c, 13e, 16d, 26b, 44, 47, 61a, 61b, 63, 134, 138, and 308. Assay 2 was used to measure HDAC activity of compounds 361, 366, 367, 368, 369, 370, 371, 372, 373, 374, 375, 376, 377, and 378. In Table 14, “a” indicates activity of ≦0.1 μM, “b” indicates activity of ≦1 μM, “c” indicates activity of ≦5 μM, and “d” indicates activity of >5 μm. For the H4-Ac T24 EC vs. MS-275 assay in Table 14, “u” indicates less than 1, “v” indicates 1, and “w” indicates greater than 1. For the H3 Ac t24 assay in Table 14, “x” indicates activity of ≦1 μM, “y” indicates activity of ≦10 μM, and “z” indicates activity of ≦20 μM.

Assay [2] has as its system Histone H4 acetylation in T24 human bladder cancer cells. The assay can be described thus: Histone H4 acetylation in whole cells by immunoblots. Type of assay: cell-based. The settings on record: ratio of EC50 of compound to EC50 of control MS-275, 16 h. The procedure:
T24 human bladder cancer cells growing in culture were incubated with HDAC inhibitors for 16 h. Histones were extracted from the cells after the culture period as described by M. Yoshida et al. (J. Biol. Chem. 265(28): 17174-17179 (1990)). […] of total histone protein was loaded onto SDS/PAGE and transferred to nitrocellulose membranes. Membranes were probed with polyclonal antibodies specific for acetylated histone H-4 (Upstate Biotech Inc.), followed by horse radish peroxidase conjugated secondary antibodies (Sigma). Enhanced Chemiluminescence (ECL) (Amersham) detection was performed using Kodak films (Eastman Kodak). Acetylated H-4 signal was quantified by densitometry. Data are presented as the ratio of the concentration effective for […] the acetylated H-4 signal by 50% (EC50) using the indicated compound of the invention to a control compound, MS-275. If the indicated ratio is 1, then the compound of the invention is as effective as the MS-275 control compound. […] Further information regarding the MS-275 compound can be found in Suzuki et al., J. Med. Chem. 1999, pp. 3001-3003.
Background: Immunoblotting shows a protein as a band on a membrane.

The test system of assay [3] is HCT116 cells. The experiment in a line: MTT assay. Type of assay: cell-based. The settings on record: Homo sapiens, HCT-116, 72 hours. The procedure:
HCT116 cells (2000/well) were plated into 96-well tissue culture plates one day before compound treatment. Compounds at various concentrations were added to the cells. The cells were incubated for 72 hours at 37° C. in 5% CO2 incubator. MTT (3-[4,5-dimethylthiazol-2-yl]-2,5diphenyl tetrazolium bromide, Sigma) was added at a final concentration of 0.5 mg/ml and incubated with the cells for 4 hours before one volume of solubilization buffer (50% N,N-dimethylformamide, 20% SDS, pH 4.7) was added onto the cultured cells. After overnight incubation, solubilized dye was quantified by colorimetric reading at 570 nM using a reference at 630 nM using an MR700 plate reader (Dynatech Laboratories Inc.). OD values were converted to cell numbers according to a standard growth curve of the relevant cell line. The concentration which reduces cell numbers to 50% of that of solvent treated cells is determined as MTT IC50. In Table 14, “a” indicates activity of ≦0.1 μM, “b” indicates activity of ≦1 μM, and “c” indicates activity of ≦5 μM.

Assay [4] has as its target Human HDAC-1 (Homo sapiens, UniProt Q13547). The experiment in a line: HDAC-1 enzymatic inhibition, Assay 2 (Boc-Lys(Ac)-AMC, Fluor-de-Lys). Type of assay: biochemical. Particulars: Assay 2: Boc-Lys(Ac)-AMC substrate, fluorescence; read-out: HDAC1 IC50. The procedure:
Assay 2. The following protocol was also used to assay the compounds of the invention. In the assay, the buffer used was 25 mM HEPES, pH 8.0, 137 mM NaCl, 2.7 mM KCl, 1 mM MgCl2 and the substrate was Boc-Lys(Ac)-AMC in a 50 mM stock solution in DMSO. The enzyme stock solution was 4.08 μg/mL in buffer. The compounds were pre-incubated (2 μl in DMSO diluted to 13 μl in buffer for transfer to assay plate) with enzyme (20 μl of 4.08 μg/ml) for 10 minutes at room temperature (35 μl pre-incubation volume). The mixture was pre-incubated for 5 minutes at room temperature. The reaction was started by bringing the temperature to 37° C. and adding […] substrate. Total reaction volume was 50 μl. The reaction was stopped after 20 minutes by addition of 50 μl developer, prepared as directed by Biomol (Fluor-de-Lys developer, Cat. # KI-105). A plate was incubated in the dark for 10 minutes at room temperature before reading (λEx=360 nm, λEm=470 nm, Cutoff filter at 435 nm).
as §1

Chain of Human HDAC-1 (Q13547 whole entry): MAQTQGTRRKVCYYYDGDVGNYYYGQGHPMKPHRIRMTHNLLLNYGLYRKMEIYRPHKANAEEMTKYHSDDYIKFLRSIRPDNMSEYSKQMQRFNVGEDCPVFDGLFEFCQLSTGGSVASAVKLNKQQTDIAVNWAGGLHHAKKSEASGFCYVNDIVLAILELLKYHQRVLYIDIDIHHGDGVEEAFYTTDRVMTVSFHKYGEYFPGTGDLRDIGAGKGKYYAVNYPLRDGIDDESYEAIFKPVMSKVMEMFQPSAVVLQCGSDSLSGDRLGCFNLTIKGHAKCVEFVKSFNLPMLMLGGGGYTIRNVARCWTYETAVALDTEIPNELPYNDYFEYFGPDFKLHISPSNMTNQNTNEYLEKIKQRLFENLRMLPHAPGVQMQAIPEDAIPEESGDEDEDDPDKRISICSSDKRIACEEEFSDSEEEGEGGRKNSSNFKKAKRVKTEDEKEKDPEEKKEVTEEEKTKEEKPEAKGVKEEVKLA
T1 sequence (Q13547 whole entry): as above

Turning to `Nc1ccccc1NC(=O)c1ccc(CNc2cc(-c3cccnc3)ncn2)cc1` [61b, N-(2-Amino-phenyl)-4-[(6-pyridin-3-yl-pyrimidin-4-ylamino)-methyl]-benzamide], the results for the IC50 in assay [1] and in assay [3] were 1000 to 5000 nM and at most 100 nM, respectively. In assay [2], the “H4-Ac T24 EC vs. MS-275” value is “u (“u” indicates less than 1)”.
For `Nc1ccccc1NC(=O)c1ccc(CNc2cncc(-c3cccnc3)n2)cc1` [compound 63, N-(2-Amino-phenyl)-4-[(6-pyridin-3-yl-pyrazin-2-ylamino)-methyl]-benzamide], in that order: 1000 to 5000 nM, 100 to 1000 nM and “v (“v” indicates 1)”.
Taken in the same sequence, the figures for `Nc1ccccc1NC(=O)c1ccc(CNc2ccnc(-c3cccnc3)n2)cc1` [compound 47, N-(2-Amino-phenyl)-4-[(2-pyridin-3-yl-pyrimidin-4-ylamino)-methyl]-benzamide] were 1000 to 5000 nM, 100 to 1000 nM and “u (“u” indicates less than 1)”.
For `Nc1ccccc1NC(=O)c1ccc(CNc2nccc(-c3ccc(CN4CCOCC4)cc3)n2)cc1` [compound 44, N-(2-Amino-phenyl)-4-{[4-(4-morpholin-4-ylmethyl-phenyl)-pyrimidin-2-ylamino]-methyl}-benzamide], in that order: 1000 to 5000 nM, at most 100 nM and “v (“v” indicates 1)”.
Consider `Nc1ccccc1NC(=O)c1ccc(CNc2nccc(-c3ccc(F)c(F)c3)n2)cc1` [16d, N-(2-Amino-phenyl)-4-{[4-(3,4-difluoro-phenyl)-pyrimidin-2-ylamino]-methyl}-benzamide], for which the IC50 in assay [1] and in assay [3] was 100 to 1000 nM throughout. For the same compound, in assay [2], the “H4-Ac T24 EC vs. MS-275” value is “v (“v” indicates 1)”.
For `Nc1ccccc1NC(=O)c1ccc(N2CC[C@H](Oc3ccc([N+](=O)[O-])cc3)C2)cc1` [compound 377, (S)—N-(2-Aminophenyl)-4-(3-(4-nitrophenoxy)pyrrolidin-1-yl)benzamide], the IC50 in assay [3] and in assay [4] was 100 to 1000 nM each time.
As for `Nc1ccccc1NC(=O)c1ccc(N2CC[C@H](Oc3ccc(Oc4ccccc4)cc3)C2)cc1` [compound 376, (S)—N-(2-Aminophenyl)-4-(3-(4-phenoxyphenoxy)pyrrolidin-1-yl)benzamide], the IC50 in assay [3] and in assay [4] was 1000 to 5000 nM in each case.
As to `Nc1ccccc1NC(=O)c1ccc(N2CC[C@@H](Nc3ccccc3)C2)cc1` [compound 370, (R)—N-(2-Aminophenyl)-4-(3-(phenylamino)pyrrolidin-1-yl)benzamide], the IC50 in assay [3] and in assay [4] was 1000 to 5000 nM throughout.
Consider `Nc1ccccc1NC(=O)c1ccc(N2CC[C@H](Oc3ccccc3)C2)cc1` [compound 371, (S)—N-(2-Aminophenyl)-4-(3-phenoxypyrrolidin-1-yl)benzamide], for which the concentration for half-maximal inhibition (IC50) in assay [3] and in assay [4] was 100 to 1000 nM each time.
Turning to `Nc1ccccc1NC(=O)c1ccc(N2CC[C@@H](Oc3cccnc3)C2)cc1` [compound 368, (R)—N-(2-Aminophenyl)-4-(3-(pyridin-3-yloxy)pyrrolidin-1-yl)benzamide], the IC50 in assay [3] and in assay [4] was 100 to 1000 nM each time.
Turning to `Nc1ccccc1NC(=O)c1ccc(CNc2ncc(-c3cccnc3)cn2)cc1` [13e, N-(2-Amino-phenyl)-4-[(5-pyridin-3-yl-pyrimidin-2-ylamino)-methyl]-benzamide], the half-maximal inhibitory concentration (IC50) (commonly the concentration needed to halve the response being measured) was in the range of 1000 to 5000 nM in assay [1] and 100 to 1000 nM in assay [3]. Besides, the “H4-Ac T24 EC vs. MS-275” value in assay [2] was “v (“v” indicates 1)”.
Taken in the same sequence, the figures for `COc1cc(NCc2ccc3oc(C(=O)Nc4ccccc4N)cc3c2)cc(OC)c1OC` [compound 308, 5-[(3,4,5-Trimethoxy-phenylamino)-methyl]-benzofuran-2-carboxylic acid (2-amino-phenyl)-amide] were 1000 to 5000 nM, 100 to 1000 nM and “w (“w” indicates greater than 1)”.
For the compound `COC(=O)c1ccc(O[C@H]2CCN(c3ccc(C(=O)Nc4ccccc4N)cc3)C2)cc1` [compound 372, (S)-Methyl-4-(1-(4-(2-aminophenylcarbamoyl)phenyl)pyrrolidin-3-yloxy)benzoate], the IC50 in assay [3] was 100 to 1000 nM; in assay [4], at most 100 nM.
`Nc1ccccc1NC(=O)c1ccc(CNc2nc3ccc(O)cc3s2)cc1` [compound 134, N-(2-Amino-phenyl)-4-[(6-hydroxy-benzothiazol-2-ylamino)-methyl]-benzamide]: the IC50 was 1000 to 5000 nM in assay [1] and 100 to 1000 nM in assay [3]. Further, the “H4-Ac T24 EC vs. MS-275” value in assay [2] is “u (“u” indicates less than 1)”.
For `Nc1ccccc1NC(=O)c1ccc(N2CC[C@H](Oc3ccc(C(=O)O)cc3)C2)cc1` [compound 373, (S)-4-(1-(4-(2-Aminophenylcarbamoyl)phenyl)pyrrolidin-3-yloxy)benzoic acid], the half-inhibitory concentration (IC50) was above 5000 nM in assay [3] and 100 to 1000 nM in assay [4].
`CSc1nc(NCc2ccc(C(=O)Nc3ccccc3N)cc2)cc(-c2cccnc2)n1` [61a, N-(2-Amino-phenyl)-4-[(2-methylsulfanyl-6-pyridin-3-yl-pyrimidin-4-ylamino)-methyl]-benzamide]: the results for the IC50 in assay [1] and in assay [3] were 1000 to 5000 nM and at most 100 nM, respectively. The “H4-Ac T24 EC vs. MS-275” value in assay [2] is recorded as “v (“v” indicates 1)”.
For `COc1cccc(CCNc2ccnc(NCc3ccc(C(=O)Nc4ccccc4N)cc3)n2)c1` [10c, N-(2-Amino-phenyl)-4-({4-[2-(3-methoxy-phenyl)-ethylamino]-pyrimidin-2-ylamino}-methyl)-benzamide], in that order: 1000 to 5000 nM, 100 to 1000 nM and “v (“v” indicates 1)”.
